Assay results: patent US20250197382A1, “KIF18A INHIBITOR” (WIGEN BIOMEDICINE TECHNOLOGY (SHANGHAI) CO., LTD., priority 2022, published 2025)

biological target: Recombinant human KIF18A (1-467His-tagged) protein (Homo sapiens (Human), UniProt Q8NI77); assay: KIF18A enzyme assay (microtubule-stimulated ATPase activity, ADP-Glo); format: biochemical; details: 30 nM KIF18A, ATP 75 μM, read-out: inhibitory activity against KIF18A IC50
Procedure, shortened: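 Baculovirus-expressed human KIF18A (1-467, His-tagged; 30 nM) preincubated 15 min at room temperature with compound (22-point 2-fold series) in pH 7.5 Tris buffer containing 30 μg/mL pig microtubules and 1 μM paclitaxel.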

Sequence of Recombinant human KIF18A (1-467His-tagged) protein (Q8NI77 1-467): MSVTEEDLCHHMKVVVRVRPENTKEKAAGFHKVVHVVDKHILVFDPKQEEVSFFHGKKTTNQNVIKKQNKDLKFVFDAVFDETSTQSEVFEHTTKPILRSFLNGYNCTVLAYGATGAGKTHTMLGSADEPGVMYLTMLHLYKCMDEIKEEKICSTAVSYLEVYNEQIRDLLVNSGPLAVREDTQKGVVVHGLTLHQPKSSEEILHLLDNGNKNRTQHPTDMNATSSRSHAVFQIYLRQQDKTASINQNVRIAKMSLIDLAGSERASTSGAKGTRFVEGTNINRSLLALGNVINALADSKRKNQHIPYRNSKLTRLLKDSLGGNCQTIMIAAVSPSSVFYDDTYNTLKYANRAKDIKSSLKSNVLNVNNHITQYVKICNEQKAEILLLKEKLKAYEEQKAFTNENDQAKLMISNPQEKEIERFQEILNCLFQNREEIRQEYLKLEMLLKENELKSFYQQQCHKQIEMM
Sequence of Recombinant human KIF18A (1-467His-tagged) protein (P02550 whole entry partner): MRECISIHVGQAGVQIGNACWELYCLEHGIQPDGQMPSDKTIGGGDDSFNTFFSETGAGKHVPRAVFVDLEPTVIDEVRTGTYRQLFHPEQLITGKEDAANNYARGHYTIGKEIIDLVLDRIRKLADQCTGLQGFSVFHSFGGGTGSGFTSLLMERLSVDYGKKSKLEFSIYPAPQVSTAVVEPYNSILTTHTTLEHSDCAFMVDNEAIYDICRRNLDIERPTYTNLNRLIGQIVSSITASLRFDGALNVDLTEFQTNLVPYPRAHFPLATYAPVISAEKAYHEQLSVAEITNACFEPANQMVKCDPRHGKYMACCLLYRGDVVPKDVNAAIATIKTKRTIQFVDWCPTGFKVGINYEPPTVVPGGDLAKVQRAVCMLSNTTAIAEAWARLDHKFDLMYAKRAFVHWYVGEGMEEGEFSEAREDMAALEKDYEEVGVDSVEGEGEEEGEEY
Sequence of Recombinant human KIF18A (1-467His-tagged) protein (P02554 whole entry partner): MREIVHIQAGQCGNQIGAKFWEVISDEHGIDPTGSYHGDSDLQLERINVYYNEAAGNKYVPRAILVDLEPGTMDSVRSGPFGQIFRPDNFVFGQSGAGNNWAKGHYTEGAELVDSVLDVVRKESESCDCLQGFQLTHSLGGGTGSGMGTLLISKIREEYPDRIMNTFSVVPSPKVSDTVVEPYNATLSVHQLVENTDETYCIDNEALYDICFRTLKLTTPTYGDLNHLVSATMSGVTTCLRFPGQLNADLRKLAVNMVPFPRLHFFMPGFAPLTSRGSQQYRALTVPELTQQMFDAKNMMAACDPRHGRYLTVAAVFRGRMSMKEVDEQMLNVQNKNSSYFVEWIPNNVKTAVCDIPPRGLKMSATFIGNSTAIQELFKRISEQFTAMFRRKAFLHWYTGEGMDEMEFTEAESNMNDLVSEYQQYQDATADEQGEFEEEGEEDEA

| SMILES | IC50 |
| --- | --- |
| C[C@@H]1CN(c2cc(C(=O)Nc3ccc(NS(=O)(=O)[C@H](C)CO)cc3N3CCC4(CC3)CC4)cc3ccoc23)CCO1 [Compound 176] | ≤ 100 nM |
| C[C@@H]1CN(c2nc(C(=O)Nc3ccc(NS(=O)(=O)CCO)cc3N3CCC4(CC3)CC4)cc3ccn(C)c23)CCO1 [Compound 482] | ≤ 100 nM |
| C[C@@H](CO)S(=O)(=O)Nc1ccc(C(=O)Nc2cc3c(c(N4CCC(F)(F)CC4)c2)OCC3)c(N2CCC3(CC2)CC3)c1 [Compound 13] | ≤ 100 nM |
| O=C(Nc1ccc(S(=O)(=O)NCCO)cc1N1CCC2(CC1)CC2)c1cc2c(c(N3CCC(F)CC3)c1)OCC2 [Compound 57] | ≤ 100 nM |
| C[C@H](CO)S(=O)(=O)Nc1ccc(C(=O)Nc2cc3c(c(N4CCC(F)(F)CC4)n2)N(C)CC3)c(N2CCC3(CC2)CC3)c1 [Compound 334] | ≤ 100 nM |
| C[C@@H]1CN(c2cc(C(=O)Nc3ccc(NS(=O)(=O)CCO)cc3N3CCC4(CC3)CC4)cc3ccoc23)CCO1 [Compound 162] | ≤ 100 nM |
| O=C(Nc1cc2c(c(N3CCC(F)(F)CC3)n1)NCC2)c1ccc(NS(=O)(=O)CCO)cc1N1CCC2(CC1)CC2 [Compound 524] | ≤ 100 nM |
| C[C@@H]1CN(c2nc(NC(=O)c3ccc(NS(=O)(=O)[C@H](C)CO)cc3N3CCC4(CC3)CC4)cc3ccoc23)CCO1 [Compound 208] | ≤ 100 nM |
| C[C@H]1CN(c2nc(NC(=O)c3ccc(NS(=O)(=O)CCO)cc3N3CCC4(CC3)CC4)cc3ccn(C)c23)CCO1 [Compound 451] | ≤ 100 nM |
| O=C(Nc1ccc(S(=O)(=O)NCCO)cc1N1CCC2(CC1)CC2)c1cc2c(c(OCCC(F)(F)F)c1)OCC2 [Compound 53] | ≤ 100 nM |
| CN1CCc2cc(C(=O)Nc3ccc(S(=O)(=O)NCCO)cc3N3CCC4(CC3)CC4)nc(NC(C)(C)CO)c21 [Compound 379] | ≤ 100 nM |
| C[C@H](CO)NS(=O)(=O)c1ccc(NC(=O)c2cc(N3CCC(F)(F)CC3)c3c(ccn3C)c2)c(N2CCC3(CC2)CC3)c1 [Compound 446] | ≤ 100 nM |
| O=C(Nc1ccc(S(=O)(=O)NCCO)cc1N1CCC2(CC1)CC2)c1cc2ccoc2c(N2CCC3(CC3)C2)n1 [Compound 246] | ≤ 100 nM |
| C[C@@H]1CN(c2cc(NC(=O)c3ccc(NS(=O)(=O)[C@H](C)CO)cc3N3CCC4(CC3)CC4)cc3c2OCC3)CCO1 [Compound 16] | ≤ 100 nM |
| Cn1ccc2cc(C(=O)Nc3ccc(NS(=O)(=O)CCO)cc3N3CCC4(CC3)CC4)nc(NC(C)(C)CO)c21 [Compound 491] | ≤ 100 nM |
| CC1(F)CCN(c2nc(NC(=O)c3ccc(S(=O)(=O)NCCO)cc3N3CCC4(CC3)CC4)cc3c2OCC3)C1 (stereo not drawn) [Compound 88] | ≤ 100 nM |
| O=C(Nc1ccc(S(=O)(=O)NCCO)cc1N1CCC2(CC1)CC2)c1cc2c(c(N3CCC(F)(F)CC3)c1)OCCC2 [Compound 547] | ≤ 100 nM |
| CC(C)(CO)Nc1nc(C(=O)Nc2ccc(NS(=O)(=O)CCO)cc2N2CCC3(CC2)CC3)cc2ccoc12 [Compound 235] | ≤ 100 nM |
| CC(C)(CO)Nc1nc(NC(=O)c2ccc(NS(=O)(=O)CCO)cc2N2CCC3(CC2)CC3)cc2c1OCC2 [Compound 75] | ≤ 100 nM |
| Cn1ccc2cc(C(=O)Nc3ccc(NS(=O)(=O)CCO)cc3N3CCC4(CC3)CC4)cc(N3CC4CC4C3)c21 (stereo not drawn) [Compound 426] | ≤ 100 nM |
| C[C@@H](CO)NS(=O)(=O)c1ccc(NC(=O)c2cc3ccn(C)c3c(N3CCC(F)(F)CC3)n2)c(N2CCC3(CC2)CC3)c1 [Compound 509] | ≤ 100 nM |

| SMILES | IC50 |
| --- | --- |
| Cn1ccc2cc(C(=O)Nc3ccc(S(=O)(=O)NCCO)cc3N3CCC4(CC3)CC4)nc(NC(C)(C)CO)c21 [Compound 507] | ≤ 100 nM |
| O=C(Nc1ccc(NS(=O)(=O)CCO)cc1N1CCC2(CC1)CC2)c1cc(OC2CCC2)c2occc2c1 [Compound 167] | ≤ 100 nM |
| Cn1ccc2cc(NC(=O)c3ccc(NS(=O)(=O)CCO)cc3N3CCC4(CC3)CC4)cc(N3CC(F)(F)C3)c21 [Compound 388] | ≤ 100 nM |
| Cn1ccc2cc(C(=O)Nc3ccc(NS(=O)(=O)CCO)cc3N3CCC4(CC3)CC4)cc(N3CC(F)(F)C3)c21 [Compound 420] | ≤ 100 nM |
| O=C(Nc1cc2c(c(OCCC(F)(F)F)n1)OCC2)c1ccc(S(=O)(=O)NCCO)cc1N1CCC2(CC1)CC2 [Compound 85] | ≤ 100 nM |
| CN1CCc2cc(C(=O)Nc3ccc(NS(=O)(=O)CCO)cc3N3CCC4(CC3)CC4)cc(NC(C)(C)CO)c21 [Compound 299] | ≤ 100 nM |
| C[C@H]1CN(c2cc(C(=O)Nc3ccc(NS(=O)(=O)CCO)cc3N3CCC4(CC3)CC4)cc3c2N(C)CC3)CCO1 [Compound 291] | ≤ 100 nM |
| O=C(Nc1cc(OC2CCC2)c2occc2c1)c1ccc(NS(=O)(=O)CCO)cc1N1CCC2(CC1)CC2 [Compound 135] | ≤ 100 nM |
| C[C@H]1CN(c2cc(NC(=O)c3ccc(S(=O)(=O)NCCO)cc3N3CCC4(CC3)CC4)cc3c2N(C)CC3)CCO1 [Compound 275] | ≤ 100 nM |
| O=C(Nc1ccc(NS(=O)(=O)CCO)cc1N1CCC2(CC1)CC2)c1cc2c(c(N3CCC(F)CC3)n1)OCC2 [Compound 105] | ≤ 100 nM |
| Cn1ccc2cc(NC(=O)c3ccc(NS(=O)(=O)CCO)cc3N3CCC4(CC3)CC4)nc(N3CCC(F)(F)CC3)c21 [Compound 449] | ≤ 100 nM |
| O=C(Nc1ccc(NS(=O)(=O)CCO)cc1N1CCC2(CC1)CC2)c1cc2ccoc2c(N2CCC(F)CC2)n1 [Compound 233] | ≤ 100 nM |
| O=C(Nc1ccc(NS(=O)(=O)CCO)cc1N1CCC2(CC1)CC2)c1cc2c(c(N3CCC(F)(F)CC3)n1)OCCC2 [Compound 548] | ≤ 100 nM |
| C[C@H]1CN(c2nc(C(=O)Nc3ccc(NS(=O)(=O)CCO)cc3N3CCC4(CC3)CC4)cc3c2OCC3)CCO1 [Compound 99] | ≤ 100 nM |
| CN1CCc2cc(C(=O)Nc3ccc(S(=O)(=O)NCCO)cc3N3CCC4(CC3)CC4)nc(OC3CCC3)c21 [Compound 375] | ≤ 100 nM |
| Cn1ccc2cc(C(=O)Nc3ccc(S(=O)(=O)NCCO)cc3N3CCC4(CC3)CC4)nc(N3CCC(F)(F)CC3)c21 [Compound 497] | ≤ 100 nM |
| CN1CCc2cc(NC(=O)c3ccc(NS(=O)(=O)CCO)cc3N3CCC4(CC3)CC4)nc(N3CC4CC4C3)c21 (stereo not drawn) [Compound 330] | ≤ 100 nM |
| O=C(Nc1cc(N2CC(F)(F)C2)c2occc2c1)c1ccc(S(=O)(=O)NCCO)cc1N1CCC2(CC1)CC2 [Compound 148] | ≤ 100 nM |
| C[C@H](CO)NS(=O)(=O)c1ccc(C(=O)Nc2cc3c(c(N4CCC(F)(F)CC4)n2)OCC3)c(N2CCC3(CC2)CC3)c1 [Compound 94] | ≤ 100 nM |
| O=C(Nc1cc2ncoc2c(N2CCC(F)(F)CC2)n1)c1ccc(NS(=O)(=O)CCO)cc1N1CCC2(CC1)CC2 [Compound 514] | ≤ 100 nM |
| C[C@@H]1CN(c2cc(NC(=O)c3ccc(NS(=O)(=O)CCO)cc3N3CCC4(CC3)CC4)cc3ccoc23)CCO1 [Compound 130] | ≤ 100 nM |

| SMILES | IC50 |
| --- | --- |
| Cn1ccc2cc(NC(=O)c3ccc(S(=O)(=O)NCCO)cc3N3CCC4(CC3)CC4)nc(CC(C)(C)CO)c21 [Compound 475] | ≤ 100 nM |
| CN1CCc2cc(NC(=O)c3ccc(S(=O)(=O)NCCO)cc3N3CCC4(CC3)CC4)nc(N3CC4CC4C3)c21 (stereo not drawn) [Compound 346] | ≤ 100 nM |
| CN1CCc2cc(C(=O)Nc3ccc(NS(=O)(=O)CCO)cc3C3CCC4(CC3)CC4)nc(N3CCC4(CC4)C3)c21 [Compound 358] | ≤ 100 nM |
| Cn1ccc2cc(NC(=O)c3ccc(NS(=O)(=O)CCO)cc3N3CCC4(CC3)CC4)cc(OCCC(F)(F)F)c21 [Compound 389] | ≤ 100 nM |
| O=C(Nc1ccc(S(=O)(=O)NCCO)cc1N1CCC2(CC1)CC2)c1cc(N2CCC3(CC3)C2)c2occc2c1 [Compound 182] | ≤ 100 nM |
| CN1CCc2cc(C(=O)Nc3ccc(NS(=O)(=O)CCO)cc3N3CCC4(CC3)CC4)nc(N3CCOCC3)c21 [Compound 364] | ≤ 100 nM |
| C[C@@H]1CN(c2nc(C(=O)Nc3ccc(NS(=O)(=O)CCO)cc3N3CCC4(CC3)CC4)cc3c2N(C)CC3)CCO1 [Compound 354] | ≤ 100 nM |
| C[C@H](CO)NS(=O)(=O)c1ccc(NC(=O)c2cc3c(c(N4CCO[C@H](C)C4)c2)OCC3)c(N2CCC3(CC2)CC3)c1 [Compound 64] | ≤ 100 nM |
| C[C@@H]1CN(c2nc(C(=O)Nc3ccc(NS(=O)(=O)[C@@H](C)CO)cc3N3CCC4(CC3)CC4)cc3ccoc23)CCO1 [Compound 239] | ≤ 100 nM |
| O=C(Nc1ccc(NS(=O)(=O)CCO)cc1N1CCC2(CC1)CC2)c1cc2c(c(N3CCC(F)CC3)c1)OCC2 [Compound 41] | ≤ 100 nM |
| O=C(Nc1cc2ccoc2c(N2CCC(F)(F)CC2)n1)c1ccc(S(=O)(=O)NCCO)cc1N1CCC2(CC1)CC2 [Compound 209] | ≤ 100 nM |
| O=C(Nc1cc2c(c(N3CCC(F)(F)CC3)n1)OCCC2)c1ccc(NS(=O)(=O)CCO)cc1N1CCC2(CC1)CC2 [Compound 540] | ≤ 100 nM |
| O=C(Nc1cc2c(c(N3CCOCC3)n1)OCC2)c1ccc(NS(=O)(=O)CCO)cc1N1CCC2(CC1)CC2 [Compound 76] | ≤ 100 nM |
| CN1CCc2cc(NC(=O)c3ccc(NS(=O)(=O)CCO)cc3N3CCC4(CC3)CC4)cc(N3CCC(F)(F)CC3)c21 [Compound 289] | ≤ 100 nM |
| CN1CCc2cc(C(=O)Nc3ccc(NS(=O)(=O)CCO)cc3N3CCC4(CC3)CC4)cc(N3CCC(F)CC3)c21 [Compound 297] | ≤ 100 nM |
| C[C@@H]1CN(c2nc(C(=O)Nc3ccc(S(=O)(=O)N[C@@H](C)CO)cc3N3CCC4(CC3)CC4)cc3c2OCC3)CCO1 [Compound 127] | ≤ 100 nM |
| Cn1ccc2cc(NC(=O)c3ccc(S(=O)(=O)NCCO)cc3N3CCC4(CC3)CC4)cc(N3CCC(C)(F)C3)c21 (stereo not drawn) [Compound 408] | ≤ 100 nM |
| O=C(Nc1cc2c(c(N3CCC(F)(F)CC3)c1)CCCC2)c1ccc(NS(=O)(=O)CCO)cc1N1CCC2(CC1)CC2 [Compound 531] | 100 to 500 nM |
| Cn1ccc2cc(NC(=O)c3ccc(NS(=O)(=O)CCO)cc3N3CCC4(CC3)CC4)nc(OC3CCC3)c21 [Compound 455] | ≤ 100 nM |
| C[C@H](CO)NS(=O)(=O)c1ccc(NC(=O)c2cc(N3CCC(F)(F)CC3)c3occc3c2)c(N2CCC3(CC2)CC3)c1 [Compound 190] | ≤ 100 nM |
| C[C@@H]1CN(c2cc(C(=O)Nc3ccc(NS(=O)(=O)[C@H](C)CO)cc3N3CCC4(CC3)CC4)cc3ccn(C)c23)CCO1 [Compound 432] | ≤ 100 nM |
